Measurements published in PMC7762174 (Viruses, 2020).
Structures can show the parent of a compound that is named as a salt. Where two headings read alike, the source gives them in different places.

Key:
human PBMCs [1] = assay: Cytotoxicity in PBMC (MTS)
HIV-1_91US005 [2] = details: HIV-1, human PBMC, p24 ELISA; 95% CI in brackets
HIV-1_91US005 [3] = details: HIV-1, human PBMC, RT assay, 7 days; 95% CI in brackets
in vitro [4] = details: African green monkey
[5] = target: T1, N-terminally truncated recombinant hDHODH enzyme (Homo sapiens, UniProt Q02127); assay: In vitro inhibition of human DHODH; assay type: biochemical
T1 construct: using an N-terminally truncated recombinant hDHODH enzyme as described
T1 sequence (Q02127 29-395 limits assumed): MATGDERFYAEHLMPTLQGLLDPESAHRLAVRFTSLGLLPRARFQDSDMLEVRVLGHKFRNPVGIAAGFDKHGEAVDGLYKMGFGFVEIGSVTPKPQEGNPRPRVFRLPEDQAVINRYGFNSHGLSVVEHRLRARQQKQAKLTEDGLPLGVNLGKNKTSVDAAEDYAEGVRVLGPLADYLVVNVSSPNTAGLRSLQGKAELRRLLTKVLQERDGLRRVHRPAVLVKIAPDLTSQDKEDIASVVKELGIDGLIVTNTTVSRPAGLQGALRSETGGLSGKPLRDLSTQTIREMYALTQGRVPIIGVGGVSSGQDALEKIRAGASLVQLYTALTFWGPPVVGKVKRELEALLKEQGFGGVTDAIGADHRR

SARS-CoV-2 [6] = assay: microbe, parasite or virus in culture; assay type: cell-based
in vitro [7] = details: African green monkey; remark: listed apart in the source
HIV-1_91US005 [8] = assay: microbe, parasite or virus in culture; details: Human immunodeficiency virus 1, PBMC
MPO in colonic tissue = test system: MPO in colonic tissue; set-up: method as in ref 57 = [57]; details: murine TNBS-induced colitis model; cited from earlier work
in vitro [9] = details: human
inflammation in the lung = test system: inflammation in the lung; set-up: method as in ref 57 = [57]; details: mouse model of systemic lupus erythematosus; cited from earlier work
HCMV AD169-GFP = assay: microbe, parasite or virus in culture; assay type: cell-based, human cytomegalovirus; details: Human betaherpesvirus 5, AD169, 168 h
HIV-1_91US005 [10] = assay: microbe, parasite or virus in culture; details: Human immunodeficiency virus 1, PBMC, 168 h
[11] = Cytotoxicity in Huh7 replicon cells (CytoTox-1 cell proliferation assay); details: human
[12] = test system: Huh7 human hepatoma cell line; assay: as above; details: highest concentration (30 µM), Huh7
[13] = test system: primary human foreskin fibroblasts (HFFs)
human PBMCs [14] = details: 7 days, 100 µM
in vitro [15] = details: human; remark: listed apart in the source
[16] = test system: HCV subgenomic replicon of genotype 1b; assay: HCV subgenomic replicon Luc reporter assay in Huh7; assay type: cell-based; details: Hepatitis C virus, Huh-7, 24 h
Vero cells = details: African green monkey
SARS-CoV-2 [17] = assay: microbe, parasite or virus in culture; assay type: cell-based; remark: listed apart in the source
in vitro [18] = assay type: cell-based; details: African green monkey
SARS-CoV-2 [19] = assay: microbe, parasite or virus in culture; assay type: cell-based; details: for reduction in viral yield: Vero 76, 3 days
SARS-CoV-2 [20] = assay type: cell-based
in vitro [21] = assay type: cell-based; details: human
[22] = Neutral Red assay (NRA) cytotoxicity; details: African green monkey
[23] = test system: primary human foreskin fibroblasts (HFFs); set-up: method as in ref 28 = [28]; details: HFF; reported previously; cited from earlier work
[24] = Severe acute respiratory syndrome coronavirus 2, RT-qPCR, Vero cells, read-out: Anti-SARS-CoV-2 drug efficacy on Vero cells: EC50
[25] = Severe acute respiratory syndrome coronavirus 2, Caco-2

`Cc1cn([C@H]2C[C@H](N=[N+]=[N-])[C@@H](CO)O2)c(=O)[nH]c1=O` [AZT, azidothymidine/zidovudine] gave a CC50 (human PBMCs [1]) greater than 1 µM, an EC50 (HIV-1_91US005 [2]) of 0.00027 µM and an EC50 (HIV-1_91US005 [3]) of 0.00038 µM.
With `COC(=O)c1c(-c2c(F)cccc2Cl)noc1-c1cnn(-c2cccc(Cl)c2)c1C(F)(F)F` [IMU-CO3] the CC50 at 3 days (in vitro [4]; CC50 values on Vero cells) was greater than 100 µM, the IC50 [5] was 0.041 µM and the EC50 (SARS-CoV-2 [6]; [24]) was 15.5 ± 4.6 µM.
With `CCN(CC)CCCC(C)Nc1ccnc2cc(Cl)ccc12` (stereo not drawn) [CQ, chloroquine, reference compound] the EC50 (SARS-CoV-2 [6]; [24]) was 2.7 ± 0.9 µM and the CC50 (in vitro [7]) was greater than 20 µM.
For `COc1cccc(-c2ccc(NC(=O)C3=C(C(=O)O)CCC3)c(F)c2)c1` [Vido, vidofludimus], the EC50 (HIV-1_91US005 [8]) is listed as 1.3 µM, the “levels of MPO in colonic tissue” value (MPO in colonic tissue) is listed as “reduced the levels of MPO in colonic tissue” and the CC50 (in vitro [9]) is listed as greater than 100 µM. For the same compound, the “inflammation in the lung” value (inflammation in the lung) was “decreased inflammation in the lung”, the EC50 (HCMV AD169-GFP) was 7.4 ± 0.1 µM and the EC50 (HIV-1_91US005 [10]) was 2.1 µM. For the same compound, the CC50 at 24 h [11] was greater than 30 µM, the “reduction in cell viability” value [12] was 34% and the cytotoxicity [13] was “absence of detectable cytotoxicity”. The “reduction in cell viability” value (human PBMCs [14]) was 46.8%, the CC50 at 7 days (in vitro [15]) was greater than 100 µM and the EC50 [16] was 5.9 µM.
In the case of `COc1cccc(-c2ccc(NC(=O)C3=C(C(=O)O)CCC3)c(F)c2)c1` [IMU-838, calcium salt of vidofludimus], the CC50 (Vero cells) is reported as greater than 100 µM, the “reduction of viral plaques” value (SARS-CoV-2 [17]; 30 µM, CaCo-2, 72 h p.i.) is reported as ~ 1.8 log unit and the EC50 (SARS-CoV-2 [17]; [25]) is reported as 7.5 to 15 µM. For the same compound, the EC90 (SARS-CoV-2 [17]; [25]) was 15 to 30 µM, the viability at 3 days, 100 µM (in vitro [4]) was 95% and the CC50 (in vitro [4]; CC50) was 88.1 ± 3.7 µM. The EC50 (SARS-CoV-2 [6]; Severe acute respiratory syndrome coronavirus 2, Vero 76, 72 h, read-out: EC50, replicate 3 RT-qPCR) was 10 ± 9 µM, the EC50 (SARS-CoV-2 [6]; Severe acute respiratory syndrome coronavirus 2, Vero, 48 h, read-out: EC50, replicate 1 RT-qPCR) was 6.8 µM and the EC50 (SARS-CoV-2 [6]; Severe acute respiratory syndrome coronavirus 2, Vero, 72 h, read-out: EC50, replicate 2 RT-qPCR) was 6 µM. It also gave an EC50 (SARS-CoV-2 [6]; Severe acute respiratory syndrome coronavirus 2, Vero, read-out: Mean EC50 of replicates 1-3) of 7.6 ± 5.8 µM, a CC90 (in vitro [18]) greater than 100 µM and an EC90 (SARS-CoV-2 [19]; Severe acute respiratory syndrome coronavirus 2, Vero 76, 72 h) of 6.2 ± 1.9 µM. For the same compound, the “reduction in viral yield” value (SARS-CoV-2 [19]; drug alone at 10 µM) was ~ 1.7 fold log unit, the “inhibition of viral RNA production (mAb-dsRNA)” value (SARS-CoV-2 [20]) was “concentration-dependent IMU-838-mediated inhibition” and the “inhibition of viral spike protein production (mAb-S)” value (SARS-CoV-2 [20]) was “concentration-dependent IMU-838-mediated inhibition”. The CC50 (in vitro [21]) was greater than 60 µM and the CC90 (in vitro [21]) was greater than 60 µM.
In the case of `C/C(O)=C(\C#N)C(=O)Nc1ccc(C(F)(F)F)cc1` [TFNM, teriflunomide], the EC90 (SARS-CoV-2 [19]; Severe acute respiratory syndrome coronavirus 2, 72 h, Vero 76, USA_WA1/2020, MOI 0.002, VYR, 3 days p.i., read-out: EC90) is reported as 14 µM.
For `CCC(CC)COC(=O)[C@H](C)N[P@](=O)(OC[C@H]1O[C@@](C#N)(c2ccc3c(N)ncnn23)[C@H](O)[C@@H]1O)Oc1ccccc1` [RDV, remdesivir], the CC50 [22] was greater than 100 µM, the EC50 (SARS-CoV-2 [6]; [24]) was 1.7 ± 1 µM and the “reduction in viral yield” value (SARS-CoV-2 [19]; drug alone at 5 µM) was ~ 3.8 fold log unit. For the same compound, the “reduction in viral yield” value (SARS-CoV-2 [19]; drug alone at 10 µM) was greater than 4.0 fold log unit and the CC50 (in vitro [7]) was greater than 20 µM.
In the case of `Nc1nc(O)c2ncn(COC(CO)CO)c2n1` [GCV, ganciclovir, reference compound], the CC50 [23] is listed as greater than 15 µM and the EC50 (HCMV AD169-GFP) is listed as 1.69 ± 0.8 µM.
